The text below walks through data of US12371658B2, “Three-dimensional microtissues with integrated mechanical loading” (Carnegie Mellon University, priority 2017, dated 2025).

The structures appear in SMILES notation.

The subject of this assay is cardiac MIFIs (HUES9-CMs with 10% FBs). Put plainly: side-on contractility assay of cardiac MIFIs with drug dosing (twitch force, beat frequency). Conditions: for beat frequency relative to initial beat frequency: normalized to native beat frequency. The assay is classed as cell-based, human. The procedure: MIFIs were removed from wells using forceps and were transferred to a 35 mm petri dish filled with 37° C. Tyrode's solution (1.192 g HEPES, 0.203 g MgCl2, 0.403 g KCl, 7.889 g NaCl, 0.04 g NaH2PO4, 0.901 g C6H12O6, and 0.265 g CaCl2) per liter of distilled water, pH 7.4). MIFIs were anchored by placing the wide base of the strip into a slit in a PDMS block glued to the bottom of the stimulation dish. The Tyrode's bath was maintained between 30° and 37° C. using a heated stage regulated by an in house Lab VIEW program. Videos of samples were taken using a NikonTM […] DSLR camera mounted on a NikonTM SMZ1500 stereomicroscope. Samples were paced from 2-10 Hz using parallel platinum electrodes placed 2 cm apart and immersed in Tyrode's solution. Samples were stimulated with 40V using a 10 ms square pulse wave. Shorter pulse durations can also be used (e.g., 2 ms, 4 ms, 6 ms, etc.). Carbachol and isoprenaline were mixed to stock concentrations of 5 mM in 1× Tyrode's solution. […] Caffeine was dissolved directly in Tyrode's to make a stock solution of 20 mM. […] Finite element modeling of bending PDMS strips was used to create lookup tables for strips ranging in thickness from 125 to 154 μm. FIGS. 9A-D show modeling data 930 for strips 900, 910, and 920. The elastic strip (e.g., strip 112) was modeled as 3D deformable extruded solid, with extruded thickness varying between 125 and 154 μm. The elastic strip was considered as linearly elastic, isotropic and incompressible material, with Young's modulus equal to 3.09 MPa according to elastic modulus measurements. The section of the elastic strip was considered as solid homogeneous. The force-driven bending simulation was designed to mimic the experimental procedure. One static general analysis step was used where the elastic strip was deformed by application of equal contractile force in three parallel axial connectors placed in the regions where the tissue was attached during the experiment, so that the total force would equal the sum of the contractile force of the three connectors. […] Additional boundary conditions were imposed based on geometrical symmetry. […] Finally, the finite element mesh was composed of 20-node quadratic, hybrid, reduced integration brick elements. From this model, the change in tissue length could then be used to calculate the force necessary to bend the strips to these conformations. Length changes of contracting MIFIs were tracked and resulting length data was used to calculate the corresponding force based on tissue length and strip parameters (e.g., thickness, width, length, elastic modulus, and shape). […] By tracking the change in tissue length of beating MIFIs, we calculated force generated by these tissues using force lookup tables. MIFIs were removed from wells, one side of the strip was placed in a slit in a PDMS block to anchor the MIFI for side-on viewing, and the construct was submerged in Tyrode's and placed between two parallel platinum electrodes for later stimulation by assay device 1300.

[1] abbreviates: Day 14, 10% FB MIFI, carbachol dosing, concentration not given.
Setting [2] is: Day 14, 10% FB MIFI, isoprenaline at 500 nM and 5 μM.

Turning to `Cn1c(=O)c2c(ncn2C)n(C)c1=O` [caffeine], the “beat frequency relative to initial BPM” value (5 mM caffeine) turned out to be 1.59 ×. Under “Day 14, 10% FB MIFI, 55 mM caffeine”, the “effect on twitch force” value is “minimal impact on the twitch force”. Besides, the “effect on spontaneous beat frequency” value (Day 14, 10% FB MIFI, 55 mM caffeine, after isoprenaline wash-out) is given as “increased the spontaneous beat frequency”.
Consider `C[N+](C)(C)CCOC(N)=O` [carbachol], for which, under setting [1], the “effect on spontaneous beat frequency” value is on record as “reduced the spontaneous beat frequency” and the “effect on twitch force” value was “surprisingly little impact on twitch force”. The “twitch force relative to twitch force of synchronous constructs” value (Day 14 arrhythmic construct, carbachol 500 nM, 5 μM, 50 µM, spontaneous beating) is roughly 30%. Further, the “effect on spontaneous beat frequency of arrhythmic construct” value (Day 14 arrhythmic construct, increasing carbachol doses 500 nM, 5 μM, 50 µM) was “improvement in the spontaneous beat frequency”. Also, the “fold stronger twitch contraction” value (arrhythmic construct, 2 Hz pacing coupled with 5 μM carbachol) was 2.5 ×. For the setting “arrhythmic construct, 2 Hz pacing coupled with 50 μM carbachol”, the “fold stronger twitch contraction” value was 2.8 ×. Further, for the setting “arrhythmic construct, carbachol 5 μM and 50 μM, 2 Hz pacing”, the “combinatorial effect of drug treatment with electric pacing on twitch force” value is given as “significantly higher twitch forces”.
For `CNC[C@H](O)c1ccc(O)c(O)c1` [epinephrine], the “twitch force as percent of initial twitch force” value is, setting by setting: (5 μM epinephrine, electrical pacing 2 Hz) 85%; (5 μM epinephrine, spontaneous beating) 66%; (50 μM epinephrine, electrical pacing 2 Hz) 80%; (50 μM epinephrine, spontaneous beating) 61%. Also, the twitch force (Day 14, 10% FB MIFI, 500 nM epinephrine, spontaneous beating) amounted to 5.49 μN. Also, under “Day 14, 10% FB MIFI, epinephrine 500 nM to 50 μM”, the “effect on twitch force” value is “dose-dependent decrease in twitch force”. Besides, the “beat frequency relative to initial BPM” value (epinephrine, first of two values, dose not given) is listed as 1.42 ×.
As to `CC(C)NCC(O)c1ccc(O)c(O)c1` (centres unmarked) [isoprenaline], the “beat frequency relative to initial beat frequency” value (500 nM isoprenaline) is 1.27 × and the “beat frequency relative to initial beat frequency” value (50 μM isoprenaline) was determined as 1.48 ×. Where the note is “Day 14, 10% FB MIFI, 500 nM isoprenaline”, the “twitch force as percent of initial twitch force” value is given as roughly 80%. The twitch force runs as follows: (Day 14, 10% FB MIFI, 500 nM isoprenaline, 2 Hz paced) 2.81 μN; (Day 14, 10% FB MIFI, 500 nM isoprenaline, spontaneous beating) 2.85 μN; (Day 14, 10% FB MIFI, beating spontaneously in 5 M isoprenaline) roughly 4.0 μN; (Day 14, 10% FB MIFI, isoprenaline, 2 Hz paced) 2.15 μN; (Day 14, 10% FB MIFI, isoprenaline, spontaneous beating) 1.78 μN. In addition, for the setting “Day 14, 10% FB MIFI, isoprenaline”, the “twitch force as percent of initial twitch strength” value is listed as roughly 50%. Under setting [2], the “effect on native beat frequency” value is recorded as “intended stimulatory effect”. Further, the “effect on twitch force” value under setting [2] is “did not noticeably affect the twitch force”. The “ability to electrically pace the constructs” value (Day 14, 10% FB MIFI, isoprenaline at 500 nM and 5 μM, 2 Hz pacing) is listed as “did not interrupt the ability to electrically pace the constructs”.
